Test results taken from ChEMBL document CHEMBL1143727, “Terpenoids from the medicinal plant Maytenus ilicifolia” (J Nat Prod, 2007).
Active and inactive are the calls of the source. The calls are words filed in the database; no cut-off is given here.

Each compound was assayed on Saccharomyces cerevisiae (assay: Antimicrobial activity against DNA damage check point deffective Saccharomyces cerevisiae mutants).
Format: functional, organism-based

| SMILES | Activity |
| --- | --- |
| COC(=O)[C@]1(C)CC[C@](C)(CC[C@]2(C)C(/C=C\c3ccc4c(c3C)O[C@]3(O)C(=O)C=C5C(=CC=C6[C@@]5(C)CC[C@@]5(C)C7C[C@@H](C)C(=O)C[C@]7(C)CC[C@]65C)[C@]3(C)O4)[C@@H](C)CC[C@@H]2C)CC1 (some centres undefined) | inactive |
| COc1cc(C(=O)Oc2c(O)cc3c(c2C)C(O)CC2[C@@]3(C)CC[C@@]3(C)C4C[C@@H](C)C(=O)C[C@]4(C)CC[C@]23C)ccc1O (some centres undefined) | inactive |
| C=C(C)C1CCC(C)[C@@]23CC=C(C)[C@]2(C1)Oc1cc2c(c(C)c1O3)C(=O)C=C1[C@@]2(C)CC[C@@]2(C)C3C[C@@H](C)C(=O)C[C@]3(C)CC[C@]12C (some centres undefined) | inactive |
| C=C(C)C1CCC(C)[C@@]23CC=C(C)[C@]2(C1)Oc1c(cc2c(c1C)C=CC1[C@@]2(C)CC[C@@]2(C)C4C[C@@H](C)C(=O)C[C@]4(C)CC[C@]12C)O3 (some centres undefined) | inactive |
